According to patent publication US10227290B2, “Glycosphingolipids for use in modulating immune responses” (The Regents of the University of California, priority 2012, dated 2019):

Key:
[1] = test system: Peripheral blood mononuclear cells (PBMCs), CD3+Vα24+ NKT cells; assay: In vitro expansion of CD3+Vα24+ NKT cells from human PBMCs; assay type: cell-based; settings: 13 days; 0.1 μg/ml KRN7000, 1 μg/ml α-GalCerBf, 1 μg/ml ceramideBf
Method: FIGS. 6A and 6B illustrate that α-GalCerBf binds human CD1d and activates human NKT cells in vitro. FIG. 6A: PBMCs were cultured for 13 days with 0.1 μg/mlKRN7000, 1 μg/ml α-GalCerBf, or 1 μg/ml ceramideBf. Dot plots show CD3^+Vα24^+NKT cells pre- and post-expansion. The data shown are representative of at least two individual experiments performed with six individual donors. FIG. 6B: Human NKT cells were purified after two rounds of expansion with 1 μg/ml α-GalCerBf and restimulated with 10 μg/ml α-GalCerBf in the presence or absence of control Ig or anti-Cd1d blocking antibodies. IFN-γ secretion was measured in supernatants 40-48 hours later. Data are representative of two independent experiments.
The capability of α-GalCerBf to stimulate freshly isolated NKT cells was determined. A first experiment was performed to determine whether Vα24^+ cells could be expanded in vitro with α-GalCerBf as previously described for KRN7000 (see, e.g., Rogers et al., J. Immunol. Meth. 285:197-214 (2004)). Peripheral blood mononuclear cells (PBMCs) were cultured with 0.1 μg/ml KRN7000, 1 μg/ml α-GalCerBf, or 1 μg/ml ceramideBf for 13 days. The presence of CD3 Vα24^+ cells was then assessed by flow cytometry. At least two individual experiments performed with six individual donors. […] IFN-γ secretion was measured in supernatants 40-48 hours later.

liver NKT cells = assay: In vivo activation of NKT cells by transfer of sphingolipid-pulsed BMDCs; set-up: species or system C57BL/6 mice; settings: without re-stimulation; BMDCs pulsed with α-GalCerBf
Method: FIGS. 7A-7F illustrate that α-GalCerBf activates NKT cells in vivo. Bone marrow-derived dendritic cells (BMDCs) were pulsed in vitro with LPS only or LPS+α-GalCerBf for 24 hr. Then 0.4×10^6 cells were treated with control Ig or anti-CD1d blocking antibody and then transferred to WT mice. Liver mononuclear cells were analyzed 16-18 hr later. Data shown were pooled from three independent experiments. FIGS. 7A-7C: Expression of CD25 and CD69 on gated CD3^+tetramer^+ cells. Representative flow cytometry plots and pooled data showing fold change of CD25 and CD69 surface expression compared to NKT cells isolated from mice transferred with LPS-pulsed BMDCs. FIGS. 7D and 7E provide representative flow cytometry plots and pooled data, respectively, of intracellular IFN-γ expression on gated CD3^+ tetramer^+ cells. FIG. 7F presents serum IFN-γ levels. […]
Mice were sacrificed 16-18 hr after transfer of 0.4×10^6 mature CD86^hiMHCII^hi BMDCs. […] All isolations were performed in the presence of brefeldin A. After cell surface staining, cells were fixed in Cytofix/Cytoperm (BD Biosciences) according to the manufacturer's instructions and stained for intracellular cytokines Serum IFN-γ was measured by ELISA. […]
As described herein, because α-GalCerBf is an agonist of NKT cell hybridomas and freshly isolated NKT cells in culture, the capability of α-GalCerBf to activate NKT cells in vivo was determined. […]

[2] = test system: cyclophosphamide (CY) induced diabetes; assay: Cyclophosphamide-induced diabetes mouse model; assay type: in vivo, NOD mice; settings: 25 μg intraperitoneally on days 0, 2, 4, 6, 8; diabetic = blood glucose above 250 mg/dL; 100% of DMSO controls diabetic
Method: FIG. 8 presents a graph illustrating the percent of animals that developed diabetes in a cyclophosphamide-induced diabetes mouse model. Groups of animals received DMSO only, α-GalCerBf, or KRN7000. Number of animals is represented by n. Mice were considered diabetic when blood glucose was above 250 mg/dL. Blood glucose levels were measured at the time point shown. Data are representative of three independent experiments. KRN7000 prevents cyclophosphamide (CY) induced diabetes in a Non-Obese Diabetic (NOD) mouse model (see, e.g., Sharif et al., Nat. Med. 7:1057-62 (2001)). Prevention of diabetes in this model is believed to be associated with suppression of T and B cell responses to islet antigens as well as a polarization towards TH2-like responses (see Sharif, supra). This example describes the effect of α-GalCerBf in the CY induced diabetes mouse model. Groups of twelve-week old NOD female mice were given 300 mg/kg cyclophosphamide intraperitoneally on day 0. Groups of mice received DMSO (n=4), or 25 μg α-GalCerBf (n=7) or 5 μg KRN7000 (n=3) diluted in DMSO intraperitoneally on days 0, 2, 4, 6, and 8. Diabetes progression was monitored by measuring blood glucose at each time point (see FIG. 8). […] Kaplan-Meier survival curves were determined by a log-rank test using Prism software.

| SMILES | Expansion of a population of CD3+Vα24+ cells [1] | Liver NKT cells expressing IFN-γ (liver NKT cells) | Mice in which diabetes development was prevented [2] |
| --- | --- | --- | --- |
| CC(C)CCCCCCCCCCC[C@@H](O)CC(=O)N[C@@H](CO)[C@H](O)CCCCCCCCCCCC(C)C [ceramideBf] | did not show an expansion |  |  |
| CC(C)CCCCCCCCCCC[C@@H](O)CC(=O)N[C@@H](CO[C@H]1OC(CO)[C@H](O)[C@H](O)C1O)[C@H](O)CCCCCCCCCCCC(C)C (stereo partly drawn) [α-GalCerBf] |  | 15% | more than 40% |
